Results on two molecules are retold here after patent US4101538A, “Nonapeptides and methods for their production” (Warner-Lambert, priority 1977, dated 1978).

This assay has as its system LRF (luteinizing hormone releasing factor) induced luteinizing hormone (LH) release. Kind of assay: In vitro LRF antagonist test in rat anterior pituitary cell cultures. The class given is cell-based. The source says: Nonapeptides of this invention were screened for LRF antagonist activity in vitro using rat anterior pituitary cell cultures as described by Vale et. al. [Endocrinology, 91, 562 (1972)]. The inhibition of LRF (luteinizing hormone releasing factor) induced luteinizing hormone (LH) release into the culture medium is the endpoint in this in vitro bioassay.

Where a SMILES comes first, the peptide text is derived from it. The star is where a group is joined. Cbz = O=C(OCc1ccccc1)*; Bn = c1ccc(C*)cc1

`NC(=O)CC[C@H](NC(=O)OCc1ccccc1)C(=O)N[C@@H](Cc1c[nH]c2ccccc12)C(=O)N[C@@H](CO)C(=O)N[C@@H](Cc1ccc(O)cc1)C(=O)N[C@@H](Cc1c[nH]c2ccccc12)C(=O)N1CCC[C@H]1C(=O)N1CCC[C@H]1C(=O)N[C@@H](Cc1ccc(OCc2ccccc2)cc1)C(=O)N[C@@H](COCc1ccccc1)C(N)=O` [N^α -benzyloxycarbonyl-L-glutaminyl-L-tryptophyl-L-seryl-L-tyrosyl-L-tryptophyl-L-prolyl-L-prolyl-O-benzyl-L-tyrosyl-O-benzyl-L-serinamide] (Cbz-QWSYWPPY(Bn)S(Bn)-NH2): the “% LH Release Inhibition” value runs as follows: (compound molar conc. 1×10^-7) 29%; (compound molar conc. 1×10^-8) 37%. For the same molecule, the “LH Value” came out at 52.33 ng/mL (compound molar conc. 1×10^-7, LH released into culture medium) and 47.20 ng/mL (compound molar conc. 1×10^-8, LH released into culture medium).

“LRF Control: luteinizing hormone releasing factor, also referred to as luteinizing hormone releasing hormone (LH-RH); stimulates secretion of luteinizing hormone (QHWSYGLRPG; Gonadoliberin-1; UniProt P01148 24-33, looked up) [reference compound]”: the “LH Value” (LRF alone, molar conc. 5×10^-10) amounted to 69.51 ng/mL.
